{"source": "patent US20230167081A1", "about": "“5-AMINO-2-PIPERIDINON-3-YL-1-OXOISOINDOLINE DERIVATIVES FOR DEGRADATION OF IKZF2 DEGRADERS” (President and Fellows of Harvard College, priority 2020, published 2023)", "key": {"IKZF2 [1]": {"target": "T1, IKZF2 (Homo sapiens, UniProt Q9UKS7)", "experiment": "Western blot, IKZF2 degradation in MOLM13 cells", "assay_type": "cell-based", "design": "endogenous in cells; host or cells: MOLM13", "method": "(§1) To determine the selectivity of DEG-7 and DEG-35, blotting was done for other known IMiD neo-substrates (FIG. 1A). DEG-35 degraded casein kinase 1α (CK1α), a known substrate of lenalidomide, as well as the translation termination factor GSPT1, a substrate of the IMiD CC-885, at 25 μM concentrations. To investigate whether DEG-35 could degrade IKZF2 at lower concentrations, MOLM13 cells were treated with a concentration gradient. At the lowest concentration tested (5 nM), IKZF2 and CK1a degraded, while GSPT1 levels were unperturbed."}, "IKZF1": {"target": "T2, IKZF1 (Homo sapiens, UniProt Q13422)", "T2 construct": "endogenous in cells; host or cells: MOLM13", "T2 sequence (Q96SW2 whole entry partner)": "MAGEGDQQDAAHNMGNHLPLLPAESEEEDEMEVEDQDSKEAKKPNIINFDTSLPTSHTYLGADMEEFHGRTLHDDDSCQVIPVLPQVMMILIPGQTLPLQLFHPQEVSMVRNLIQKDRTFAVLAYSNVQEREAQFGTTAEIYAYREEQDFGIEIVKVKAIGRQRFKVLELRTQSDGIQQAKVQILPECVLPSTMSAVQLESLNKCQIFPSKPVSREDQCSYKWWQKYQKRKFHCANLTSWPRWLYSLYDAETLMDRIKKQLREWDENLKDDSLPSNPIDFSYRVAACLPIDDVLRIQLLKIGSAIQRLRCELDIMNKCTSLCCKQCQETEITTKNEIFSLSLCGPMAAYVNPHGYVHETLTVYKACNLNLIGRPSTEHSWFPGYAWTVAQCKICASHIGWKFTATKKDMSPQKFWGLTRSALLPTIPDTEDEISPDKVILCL", "T2 sequence (Q16531 whole entry partner)": "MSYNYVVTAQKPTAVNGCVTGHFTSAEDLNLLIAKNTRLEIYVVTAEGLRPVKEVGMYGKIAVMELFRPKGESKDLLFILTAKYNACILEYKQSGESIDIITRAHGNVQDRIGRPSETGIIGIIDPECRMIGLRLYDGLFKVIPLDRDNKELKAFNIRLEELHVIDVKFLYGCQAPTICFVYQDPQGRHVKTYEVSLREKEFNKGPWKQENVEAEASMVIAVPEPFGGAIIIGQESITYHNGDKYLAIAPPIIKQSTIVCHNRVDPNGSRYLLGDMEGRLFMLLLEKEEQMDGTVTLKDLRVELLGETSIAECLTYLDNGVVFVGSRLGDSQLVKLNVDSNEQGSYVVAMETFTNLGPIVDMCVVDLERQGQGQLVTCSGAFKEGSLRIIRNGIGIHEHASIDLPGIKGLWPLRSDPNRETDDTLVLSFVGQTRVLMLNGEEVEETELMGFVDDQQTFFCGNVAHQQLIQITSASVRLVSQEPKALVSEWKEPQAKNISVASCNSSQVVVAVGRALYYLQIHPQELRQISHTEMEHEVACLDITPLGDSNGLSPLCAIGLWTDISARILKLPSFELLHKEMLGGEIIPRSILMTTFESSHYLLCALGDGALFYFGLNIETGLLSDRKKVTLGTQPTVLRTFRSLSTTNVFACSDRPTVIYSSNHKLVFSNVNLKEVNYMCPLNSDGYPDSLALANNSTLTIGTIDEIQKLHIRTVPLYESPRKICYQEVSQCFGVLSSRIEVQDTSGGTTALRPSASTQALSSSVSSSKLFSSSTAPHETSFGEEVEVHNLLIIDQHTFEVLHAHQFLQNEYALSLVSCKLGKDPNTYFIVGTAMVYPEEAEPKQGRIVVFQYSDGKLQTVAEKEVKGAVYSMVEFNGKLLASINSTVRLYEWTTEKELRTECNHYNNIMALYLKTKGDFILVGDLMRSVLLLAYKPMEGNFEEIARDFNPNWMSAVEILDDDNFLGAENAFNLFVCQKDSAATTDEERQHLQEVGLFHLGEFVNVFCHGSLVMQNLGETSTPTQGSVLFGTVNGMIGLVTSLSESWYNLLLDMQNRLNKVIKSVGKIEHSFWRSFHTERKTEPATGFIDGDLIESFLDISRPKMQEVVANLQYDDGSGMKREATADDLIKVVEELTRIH", "T2 sequence (Q13422 whole entry)": "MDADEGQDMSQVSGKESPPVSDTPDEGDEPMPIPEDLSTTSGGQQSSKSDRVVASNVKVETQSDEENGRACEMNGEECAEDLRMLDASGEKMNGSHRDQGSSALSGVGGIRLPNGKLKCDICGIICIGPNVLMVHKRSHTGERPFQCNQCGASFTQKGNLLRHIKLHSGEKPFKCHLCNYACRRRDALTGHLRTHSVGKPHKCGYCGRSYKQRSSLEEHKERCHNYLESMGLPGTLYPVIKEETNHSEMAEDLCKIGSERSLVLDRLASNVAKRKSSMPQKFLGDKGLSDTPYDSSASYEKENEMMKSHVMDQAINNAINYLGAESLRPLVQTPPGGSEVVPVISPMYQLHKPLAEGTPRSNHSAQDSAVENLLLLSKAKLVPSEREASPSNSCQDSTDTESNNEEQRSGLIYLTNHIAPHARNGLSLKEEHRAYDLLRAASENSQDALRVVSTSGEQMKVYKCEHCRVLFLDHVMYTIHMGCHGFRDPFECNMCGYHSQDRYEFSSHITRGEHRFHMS", "experiment": "Western blot, IKZF1 levels in MOLM13 cells", "assay_type": "cell-based", "source_text": "DEG-37 is also a suitable lead compound for IKZF2 targeted degradation (FIG. 4)."}, "GSPT1": {"target": "GSPT1 (Homo sapiens, UniProt P15170+Q96SW2)", "sequence (P15170 whole entry)": "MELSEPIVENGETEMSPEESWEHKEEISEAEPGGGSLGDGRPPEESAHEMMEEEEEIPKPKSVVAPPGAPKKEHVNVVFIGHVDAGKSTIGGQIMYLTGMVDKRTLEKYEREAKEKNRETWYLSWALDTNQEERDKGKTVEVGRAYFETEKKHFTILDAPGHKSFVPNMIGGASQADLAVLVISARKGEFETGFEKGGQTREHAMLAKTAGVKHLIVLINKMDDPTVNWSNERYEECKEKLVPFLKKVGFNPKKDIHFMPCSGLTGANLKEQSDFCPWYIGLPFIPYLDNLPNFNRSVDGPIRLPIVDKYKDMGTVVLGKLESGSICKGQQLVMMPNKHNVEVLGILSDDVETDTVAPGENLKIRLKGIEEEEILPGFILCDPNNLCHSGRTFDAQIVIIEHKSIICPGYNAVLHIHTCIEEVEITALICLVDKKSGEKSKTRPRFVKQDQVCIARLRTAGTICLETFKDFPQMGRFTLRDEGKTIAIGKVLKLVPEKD", "sequence (Q96SW2 whole entry)": "as the sequence (Q96SW2 whole entry partner) above", "sequence (Q16531 whole entry partner)": "as the sequence (Q16531 whole entry partner) above", "experiment": "Western blot, GSPT1 levels in MOLM13 cells", "assay_type": "cell-based", "design": "endogenous in cells; host or cells: MOLM13", "method": "as §1"}, "MOLM13 cells [2]": {"test_system": "MOLM13 cells", "experiment": "MTT cell viability assay in MOLM13 cells", "assay_type": "cell-based, human", "method": "The effect of DEG-7 and DEG-35 were evaluated on cell viability in MOLM13 cells."}, "IKZF2 [3]": {"target": "T1, IKZF2", "conditions": "background statement; cited from earlier work"}, "KASUMI": {"test_system": "KASUMI", "experiment": "Cell viability, antiproliferation, apoptosis, differentiation in KASUMI cells", "assay_type": "cell-based"}, "MOLM13 cells [4]": {"test_system": "MOLM13 cells", "experiment": "Differentiation in MOLM13 cells", "assay_type": "cell-based, human"}, "[5]": {"test_system": "over 800 cancer cell lines", "experiment": "PRISM screen against over 800 cancer cell lines", "assay_type": "cell-based", "conditions": "MOLM13 cell line", "source_text": "DEG-7 and DEG-35 were submitted to the Broad Institute's PRISM (Profiling Relative Inhibition Simultaneously in Mixtures) screen to be evaluated against over 800 cancer cell lines. The initial screen identified cancer cell lines that were responsive to DEG-7 and DEG-35 treatment. […] Several diffuse large B-cell lymphoma (DLBCL), acute myeloid leukemia (AML), and T-cell acute lymphoblastic leukemia (T-ALL) cell lines responded to DEG-35 in a dose-dependent manner. Of the top ten cell lines that responded to DEG-35 treatment, three were DLBCL cell lines, one was an AML cell line (MOLM13), and one was a T-ALL cell line."}, "NOMO1": {"test_system": "NOMO1", "experiment": "Cell viability, antiproliferation, apoptosis, differentiation in NOMO1 cells", "assay_type": "cell-based"}, "MOLM13 cells [6]": {"test_system": "MOLM13 cells", "experiment": "Apoptosis markers in MOLM13 cells", "assay_type": "cell-based, human"}}, "note": "“Also recorded” adds a separate entry of the source. Like-named read-outs stand apart in the source and are kept apart here.", "data": [{"smiles": "O=C1CCC(N2Cc3cc(NCc4ccc5oc6ccccc6c5c4)ccc3C2=O)C(=O)N1", "note": "(stereo not drawn) [DEG-37, 3-(5-((dibenzo[b,d]furan-2-ylmethyl)amino)-1-oxoisoindolin-2-yl)piperidine-2,6-dione]", "values": [{"measurement": "IKZF2 degradation", "setting": "IKZF2 [1]; 25 μM", "value": "selectively degrade IKZF2; also recorded: degrades IKZF2"}, {"measurement": "effect on IKZF1 levels", "setting": "IKZF1", "value": "minimally effect"}, {"measurement": "effect on GSPT1 levels", "setting": "GSPT1", "value": "minimally effect"}, {"measurement": "antiproliferative activity (in words)", "setting": "MOLM13 cells [2]; MOLM13 / AML cells", "value": "milder antiproliferative effects; also recorded: possesses antiproliferative effects"}]}, {"smiles": "Nc1cccc2c1CN(C1CCC(=O)NC1=O)C2=O", "note": "(stereo not drawn) [lenalidomide]", "values": [{"measurement": "IKZF2 degradation", "setting": "IKZF2 [3]", "value": "not degraders of IKZF2"}]}, {"smiles": "COc1ccc2cc(CNc3ccc4c(c3)CN(C3CCC(=O)NC3=O)C4=O)ccc2c1", "note": "(stereo not drawn) [DEG-7, 3-(5-(((6-methoxynaphthalen-2-yl)methyl)amino)-1-oxoisoindolin-2-yl)piperidine-2,6-dione]", "values": [{"measurement": "effect on cell viability, antiproliferation, apoptosis, or differentiation", "setting": "KASUMI", "value": "no observed effect"}, {"measurement": "induction of differentiation", "setting": "MOLM13 cells [4]", "value": "induced differentiation; also recorded: more efficient at inducing differentiation than DEG-35"}, {"measurement": "IKZF2 degradation", "setting": "IKZF2 [1]; analog screening, concentration not given", "value": "robust IKZF2 degradation; also recorded: potent degraders of IKZF2"}, {"measurement": "sensitivity of MOLM13 in PRISM screen", "setting": "[5]", "value": "sensitive"}, {"measurement": "effect on cell viability, antiproliferation, apoptosis, or differentiation", "setting": "NOMO1", "value": "no observed effect"}, {"measurement": "IC50", "setting": "MOLM13 cells [2]; MOLM13 cells", "value": 4.5, "unit": "µM"}, {"measurement": "induction of apoptosis markers", "setting": "MOLM13 cells [6]", "value": "induced apoptosis markers"}]}]}
